From publication PMC12673733, “Hydroxyethylamine & phthalimide analogs restoring defects due to GNE dysfunction: rare disease therapeutic significance” (Molecular Medicine, 2025)

Target: T1, r-wtGNE (hGNE1; recombinant wild type GNE) (Homo sapiens, UniProt Q9Y223)
T1 construct: recombinant full-length GNE; expressed in E. coli, partially purified (methods also name pcDNA3.1 vector)
T1 sequence (Q9Y223 1-722): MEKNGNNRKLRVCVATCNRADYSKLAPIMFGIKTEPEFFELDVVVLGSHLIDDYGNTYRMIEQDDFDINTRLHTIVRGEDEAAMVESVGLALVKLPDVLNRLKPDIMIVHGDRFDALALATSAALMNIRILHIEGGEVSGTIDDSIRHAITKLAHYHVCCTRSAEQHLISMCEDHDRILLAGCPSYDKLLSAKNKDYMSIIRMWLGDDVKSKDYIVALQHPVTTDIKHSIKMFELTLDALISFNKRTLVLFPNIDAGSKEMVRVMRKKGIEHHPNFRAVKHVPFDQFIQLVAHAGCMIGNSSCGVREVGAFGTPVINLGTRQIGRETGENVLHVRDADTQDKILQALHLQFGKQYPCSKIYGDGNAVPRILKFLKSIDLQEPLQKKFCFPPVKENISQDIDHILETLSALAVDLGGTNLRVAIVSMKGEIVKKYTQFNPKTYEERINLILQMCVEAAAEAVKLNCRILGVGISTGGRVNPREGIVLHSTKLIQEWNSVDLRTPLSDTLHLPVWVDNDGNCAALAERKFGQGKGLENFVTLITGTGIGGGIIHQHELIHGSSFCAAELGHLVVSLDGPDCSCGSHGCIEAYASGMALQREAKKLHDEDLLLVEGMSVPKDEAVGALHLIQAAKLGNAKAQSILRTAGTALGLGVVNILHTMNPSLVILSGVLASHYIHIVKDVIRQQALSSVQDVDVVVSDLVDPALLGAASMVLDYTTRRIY
Test: SPR, GNE immobilised on gold chip
Assay type: binding

Kd: 3 mM
Compound: C[C@H](C(=O)N[C@@H](Cc1ccccc1)[C@@H](O)CN1CCN(Cc2ccccc2)CC1)c1ccccc1 [LTC-181, (S)-N-((2 S,3 S)−4-(4-benzylpiperazin-1-yl)−3-hydroxy-1-phenylbutan-2-yl)−2-phenylpropanamide]
